{
  "source": "patent US20210318335A1",
  "about": "“BIOMARKERS, COMPOSITIONS, AND METHODS FOR DIAGNOSING AND TREATING SUBJECTS EXPOSED TO PROTEIN/HEPARIN COMPLEXES” (DUKE UNIVERSITY, priority 2018, published 2021)",
  "molecules": {"B1": {"name": "C1 esterase inhibitor: C1-inhibitor, classical pathway complement inhibitor added to plasma at 10 and 20 IU/mL (protein, UniProt P05155 23-500, looked up)", "Plasma protease C1 inhibitor": "NPNATSSSSQDPESLQDRGEGKVATTVISKMLFVEPILEVSSLPTTNSTTNSATKITANTTDEPTTQPTTEPTTQPTIQPTQPTTQLPTDSPTQPTTGSFCPGPVTLCSDLESHSTEAVLGDALVDFSLKLYHAFSAMKKVETNMAFSPFSIASLLTQVLLGAGENTKTNLESILSYPKDFTCVHQALKGFTTKGVTSVSQIFHSPDLAIRDTFVNASRTLYSSSPRVLSNNSDANLELINTWVAKNTNNKISRLLDSLPSDTRLVLLNAIYLSAKWKTTFDPKKTRMEPFHFKNSVIKVPMMNSKKYPVAHFIDQTLKAKVGQLQLSHNLSLVILVPQNLKHRLEDMEQALSPSVFKAIMEKLEMSKFQPTLLTLPRIKVTTSQDMLSIMEKLEFFDFSYDLNLCGLTEDPDLQVSAMQHQTVLELTETGVEAAAASAISVARTLLVFEVQQPFLFVLWDQQHKFPVFMGRVYDPRA"}},
  "key": {"[1]": {"test_system": "complement activation by PF4/heparin complexes", "experiment": "Antigen-C3c capture ELISA assay: complement activation by PF4/heparin in plasma", "format": "biochemical, human", "conditions": "for effect of chelator on complement activation by PF4/heparin: 10 mM added to healthy donor plasma prior to PF4/heparin", "procedure": "Antigen-C3c capture ELISA assay and Specificity ELISA: Antigen-specific monoclonal antibodies (mouse anti human PF4/heparin; KKO or mouse anti-protamine/heparin; ADA at 2 μg/mL) were incubated overnight on a microtiter plate (in phosphate buffered saline, PBS) followed by washing and blocking with 1% bovine serum albumin (BSA) in PBS for 2 hours. […] Unless specified antigen concentrations were 25 μg/mL (PF4) and 0.25 U/mL (heparin) for KKO coated plates and 125 μg/mL (PRT) and 6 U/mL (heparin) for ADA coated plates. Next, plasma containing antigen fixed by complement activation fragments was added to the capture plate for 1 hr followed by serial washes. Complement-coated antigen was detected using a biotinylated anti-C3c antibody (recognizes C3 and all C3c-containing fragments of C3, including iC3b; Quidel Corporation, San Diego, Calif.) followed by colorimetric detection as previously described. […] IgM studies: Goat anti-human IgM (μ-chain specific) agarose beads were used to deplete IgM from plasma. Anti-IgM or control agarose beads were incubated with plasma and depleted plasma supernatant was analyzed in the antigen-C3c capture assay described above."}, "B cells": {"test_system": "B cells", "experiment": "Flow cytometry of whole blood: binding of PF4/heparin, C3c and IgM to B cells", "format": "cell-based, human", "conditions": "whole blood incubated with PF4 25 μg/mL + heparin 0.25 U/mL; excess heparin wash", "protocol": "Flow cytometry studies: Flow-based studies of antigen, complement, or IgM binding to B cells were performed as described previously (Khandelwal S, et al. (2016) Blood, 128(14):1789-1799). Patient samples were processed without addition of exogenous antigen. Cells were analyzed using a BD FACS Canto Flow cytometer (BD Biosciences, Franklin Lakes, N.J.). Signals from a minimum of 10,000 cells were acquired from each sample. Analyses were performed using FCS express software (Version 5 Flow Research Edition; De Novo Software).\nTo examine if IgM co-localizes with PF4/heparin antigen and complement on B cells, surface IgM on B cells before and after addition of antigen were examined."}},
  "data": [
    {"molecule": "O=C(O)CN(CCN(CC(=O)O)CC(=O)O)CC(=O)O", "note": "[EDTA, ethylenediaminetetraacetic acid]", "values": [
      {"measurement": "effect of chelator on complement activation by PF4/heparin", "setting": "[1]", "value": "eliminated complement activation"}
    ]},
    {"molecule": "O=C(O)CN(CCOCCOCCN(CC(=O)O)CC(=O)O)CC(=O)O", "note": "[EGTA, ethylene glycol-bis (β-aminoethyl ether)-N,N,N′,N′-tetraacetic acid]", "values": [
      {"measurement": "effect of chelator on complement activation by PF4/heparin", "setting": "[1]", "value": "eliminated complement activation"}
    ]},
    {"molecule": "[Cl-].[Cl-].[Mg+2]", "note": "[Mg^2+, Magnesium chloride]", "values": [
      {"measurement": "effect of Mg2+ supplementation on complement activation by PF4/heparin", "setting": "[1]; EGTA-treated plasma (10 mM EGTA), MgCl2 10 mM", "value": "did not rescue complement activation"}
    ]},
    {"molecule": "heparin", "values": [
      {"measurement": "effect of excess heparin on PF4/heparin and IgM fluorescence on B cells", "setting": "B cells", "value": "reduced PF4/heparin and IgM fluorescence to baseline"}
    ]},
    {"molecule": "B1", "values": [
      {"measurement": "effect of C1-inhibitor on complement activation by PF4/heparin", "setting": "[1]; 10 and 20 IU/mL, healthy donor plasma pre-incubated before PF4/heparin", "value": "complement activation was reduced"}
    ]}
  ]
}
